Experimental findings from article PMC9743094, “Synthesis and Evaluation of Polymyxins Bearing Reductively Labile Disulfide-Linked Lipids” (Journal of Medicinal Chemistry, 2022) are described below.

Data set [1] relates to differentiated conditionally immortalized PTECs (ciPTECs, OAT-1). Briefly: ciPTEC toxicity assay (PrestoBlue). Type of data set: cell-based, human. In short, it runs like this:
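ciPTEC (OAT-1) cells were differentiated 24 h at 33 °C then 6 days at 37 °C before 24 h exposure at 37 °C to serially diluted compounds in serum-free medium. Viability by 10% PrestoBlue fluorescence (530/590 nm), relative to untreated cells. TC50 from nonlinear regression with bottom fixed at 0; triplicates.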

The next data set concerns A. baumannii BAA-747. Type of data set: cell-based. How it is done: (§1) Minimum inhibitory concentrations (MICs) on relevant Gram-negative bacteria were determined by broth microdilution, in accordance with CLSI guidelines. Indicated bacteria were taken from glycerol stocks and incubated overnight on blood agar at 37 °C. Well-isolated colonies were taken, suspended in TSB (5 mL), and grown to an OD600 of 0.5. Compounds to be tested were dissolved in DMSO (6.4 mg/mL), diluted in cation-adjusted Mueller–Hinton Broth (CAMHB) (12.5 and 20 μg/mL Mg^2+ and Ca^2+, respectively), and diluted serially on polypropylene microtiter plates. To the diluted compounds (50 μL per well) was added 50 μL of relevant bacterial suspension, to yield a final concentration of 10^6 CFU/mL. Plates were covered by adhesive gas-permeable membranes and incubated at 37 °C. MIC was read out as the lowest concentration that inhibited visual bacterial growth. Shown values are consistent results from at least duplicate experiments.
(§2) Bacterial strains used for MIC assays and extended MIC assessment
(§3) Strains: The following strains were obtained from BEI Resources, NIAID, NIH: E. Coli M0072, strain
(§4) Table S2. […] Values are given in μg/mL.
(§5) Species Strain ID Resistance Polymyxin B 18b 23a 24a

The subject of the next data set is A. baumannii RUH-134. Format: cell-based. How it is done:
as §1, §2, §3, §4, §5

Another data set concerns E. coli 1793. Format: cell-based. How it is done: as §1, §2, §3, §4, §5
The next data set deals with E. coli JS136. Type of data set: cell-based. How it is done:
as §1, §2, §3, §4, §5

A further data set has as its system E. coli M0072. Format: cell-based. How it is done: as §1, §2, §3, §4, §5
For the next data set, the system named is K. pneumoniae ATCC 29665. Type of data set: cell-based. How it is done: as §1, §2, §3, §4, §5
The subject of a further data set is K. pneumoniae KP1.53. Type of data set: cell-based. How it is done: as §1, §2, §3, §4, §5
For a further data set, the system named is K. pneumoniae RC0045. Format: cell-based. How it is done:
as §1, §2, §3, §4, §5

In a further data set the test system is P. aeruginosa 2018-007. Format: cell-based. How it is done: as §1, §2, §3, §4, §5
For a further data set, the system named is P. aeruginosa 2251. Type of data set: cell-based. How it is done:
as §1, §2, §3, §4, §5

For a further data set, the system named is P. aeruginosa ATCC 10145. Type of data set: cell-based. How it is done:
as §1, §2, §3, §4, §5

For the next data set, the system named is P. aeruginosa M120. Format: cell-based. How it is done: as §1, §2, §3, §4, §5
The next data set concerns A. baumanii (ATCC 17961). Type of data set: cell-based. How it is done: as §1
(§6) Table S3. MIC values [µg/mL] and relative toxicity values for disulfide containing polymyxin derivative 18b and
(§7) non-disulfide containing analogue 45. […]

A further data set concerns P. aeruginosa (PAO1). Type of data set: cell-based. How it is done: as §1, §6, §7
Data set [2] relates to A. baumannii (ATCC 19606). Format: cell-based. To be noted: broth microdilution, CLSI, CAMHB, 10^6 CFU/mL, 37 °C, visual growth; triplicate experiments. The method, boiled down: (§8)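 Broth microdilution per CLSI in cation-adjusted Mueller–Hinton Broth (12.5 μg/mL Mg^2+, 20 μg/mL Ca^2+), inoculum 10^6 CFU/mL final, 37 °C. MIC taken as lowest concentration with no visible growth, consistent across at least duplicate experiments.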

In a further data set the test system is E. coli (ATCC 25922). Format: cell-based. As to conditions: broth microdilution, CLSI, CAMHB, 10^6 CFU/mL, 37 °C, visual growth; triplicate experiments. The method, boiled down: as §8
The test system of data set [3] is K. pneumoniae (ATCC 13883). Format: cell-based. To be noted: broth microdilution, CLSI, CAMHB, 10^6 CFU/mL, 37 °C, visual growth; triplicate experiments. In short, it runs like this:
as §8

In data set [4] the test system is P. aeruginosa (ATCC 27853). Type of data set: cell-based. To be noted: broth microdilution, CLSI, CAMHB, 10^6 CFU/mL, 37 °C, visual growth; triplicate experiments. The method, boiled down:
as §8

Data set [5] concerns Red blood cells from defibrinated sheep blood. Briefly: Hemolysis assay. Type of data set: cell-based. As to conditions: 128 μg/mL, 1 h, 37 °C, absorbance 415 nm, normalized to 0.1% Triton-X100, triplicates. How it is done:
Red blood cells from defibrinated sheep blood (Thermo Fisher Scientific) were centrifuged (400g for 15 min at 4 °C) and washed with PBS containing 0.002% Tween20 four times. The red blood cells were normalized to obtain an absorbance value between 2.5 and 3.0 at 415 nm to stay in the linear range of the assay with maximum sensitivity. A serial dilution of the compounds (128–4 μg/mL, 75 μL) was prepared in a 96-well plate. Each plate contained a positive control (0.1% Triton-X final concentration, 75 μL) and a negative control (buffer, 75 μL). The normalized blood cells (75 μL) were added, and the plates were incubated at 37 °C for 1 h while shaking at 500 rpm. After incubation, the plates were centrifuged (800g for 5 min at RT) and 25 μL of the supernatant was transferred to a second plate, containing 100 μL of PBS in each well. Absorbance was read-out at 415 nm. Values were corrected for background (negative control) and transformed to a percentage relative to the positive control. Results shown (Supporting Information Figure S2) are based on triplicate data.
Stability assessment in presence of glutathione
Figure S1. Compound stability upon incubation with low (5 μM) or high (5 mM) glutathione (GSH) concentration.
Compounds were incubated in PBS with the indicated concentration glutathione for 24 hours. Indicated data points are
based upon integration of HPLC UV data.
Figure S2. […]

The next data set relates to A. baumannii NRZ-00687. Type of data set: cell-based. To be noted: resistance indicator: NDM-2; broth microdilution, CAMHB. How it is done:
as §1, §2, §3, §4, §5

[6] abbreviates: resistance indicator: Multiple, broth microdilution, CAMHB.
The mark [7] stands for this setting: resistance indicator: OXA-48, broth microdilution, CAMHB.

Converted amounts (≈) assume the structure as drawn. Where two headings read alike, the source gives them in different places. Positions of bridges follow the written chain, without caps; N, C: chain ends. Non-standard residues stand in square brackets, D forms with d. Residues, ends and D or L forms follow the SMILES beside them. *: point of attachment. S(3-Methylbutyl) = CC(C)CCS*; Dab = NCC[C@H](N)C(=O)O

For `CC(C)CCSSC[C@@H](N)C(=O)N[C@H](C(=O)N[C@@H](CCN)C(=O)N[C@H]1CCNC(=O)[C@H]([C@@H](C)O)NC(=O)[C@H](CCN)NC(=O)[C@H](CCN)NC(=O)[C@H](CC(C)C)NC(=O)[C@@H](Cc2ccccc2)NC(=O)[C@H](CCN)NC1=O)[C@@H](C)O` [Compound 18b] (H-[dC](S(3-Methylbutyl))T[Dab][Dab][Dab][dF]L[Dab][Dab]T; lactam 4-C), in [1], the “TC50, Day 1” value was determined as 345 µM and the “ciPTEC Toxicity Index (relative to polymyxin B)” value worked out at 4.7. Moreover, in data set [1] (24 h), the “TC50, Day 2” value is listed as 192 µM. Also, the “MIC A. baumannii BAA-747” value against A. baumannii BAA-747 (BAA-747) was found to be 0.5 µg/mL (≈ 0.428 µM). In addition, the “MIC A. baumannii RUH-134” value against A. baumannii RUH-134 (RUH-134) came to 1 µg/mL (≈ 0.856 µM). In addition, in the data set on E. coli 1793 (1793), the “MIC E. coli 1793” value stood at 0.25 µg/mL (≈ 0.214 µM). Further, in the data set with E. coli JS136 (JS136), the “MIC E. coli JS136” value was 0.5 µg/mL (≈ 0.428 µM). For the same compound, in the data set on E. coli M0072 (M0072), the “MIC E. coli M0072” value was found to be 0.5 µg/mL (≈ 0.428 µM). Besides, the “MIC K. pneumoniae ATCC 29665” value with K. pneumoniae ATCC 29665 (ATCC 29665) is 0.5 µg/mL (≈ 0.428 µM). Besides, in the data set on K. pneumoniae KP1.53 (KP1.53), the “MIC K. pneumoniae KP1.53” value was determined as 1 µg/mL (≈ 0.856 µM). For the same compound, in the data set on K. pneumoniae RC0045 (RC0045), the “MIC K. pneumoniae RC0045” value is 0.5 µg/mL (≈ 0.428 µM). For the same compound, the “MIC P. aeruginosa 2018-007” value against P. aeruginosa 2018-007 (2018-007) came out at 2 µg/mL (≈ 1.71 µM). For the same compound, the “MIC P. aeruginosa 2251” value with P. aeruginosa 2251 (2251) came to 2 µg/mL (≈ 1.71 µM). Further, in the data set on P. aeruginosa ATCC 10145 (ATCC 10145), the “MIC P. aeruginosa ATCC 10145” value stood at 2 µg/mL (≈ 1.71 µM). In addition, the “MIC P. aeruginosa M120” value against P. aeruginosa M120 (M120) was 2 µg/mL (≈ 1.71 µM). Further, in the data set on A. baumanii (ATCC 17961) (ATCC 17961, 2 h), the “MIC A. baumanii (ATCC 17961)” value turned out to be 0.25 µg/mL (≈ 0.214 µM). Besides, the “MIC P. aeruginosa (PAO1)” value against P. aeruginosa (PAO1) (PAO1, 2 h) was 1 µg/mL (≈ 0.856 µM).
On to Polymyxin B [reference compound], for which the “MIC A. baumannii (ATCC 19606)” value in [2] is 0.25 µg/mL. Besides, the “MIC E. coli (ATCC 25922)” value with E. coli (ATCC 25922) was 1 µg/mL. Moreover, in data set [3], the “MIC K. pneumoniae (ATCC 13883)” value was found to be 0.25 µg/mL. Further, the “MIC P. aeruginosa (ATCC 27853)” value in data set [4] was determined as 1 µg/mL. The “ciPTEC Toxicity Index (relative to polymyxin B)” value in [1] (TC50 expressed relative to polymyxin B, 24 h incubation, 37 °C, serum-free medium, PrestoBlue fluorescence, nonlinear regression, triplicate) came to 1.0. The “TC50, Day 1” value in data set [1] (cell batch/analysis Day 1, ciPTEC, 24 h, 37 °C, PrestoBlue, non-linear regression with bottom constraint at 0, triplicates) amounted to 80 µM. Also, the “TC50, Day 2” value in [1] (cell batch/analysis Day 2, ciPTEC, 24 h, 37 °C, PrestoBlue, non-linear regression with bottom constraint at 0, triplicates) was determined as 41 µM. Further, in data set [5], the percent hemolysis entry is “below 5%”. The “MIC A. baumannii BAA-747” value in the data set on A. baumannii BAA-747 (broth microdilution, CAMHB) came to 0.25 µg/mL. In the data set with A. baumannii NRZ-00687, the “MIC A. baumannii NRZ-00687” value turned out to be 0.25 µg/mL. Besides, the “MIC A. baumannii RUH-134” value with A. baumannii RUH-134 (setting [6]) was 0.25 µg/mL. In addition, the “MIC E. coli 1793” value with E. coli 1793 (resistance indicator: NDM-1, broth microdilution, CAMHB) was found to be 0.063 µg/mL. Also, in the data set on E. coli JS136 (setting [7]), the “MIC E. coli JS136” value worked out at 0.125 µg/mL. For the same compound, the “MIC E. coli M0072” value in the data set with E. coli M0072 (setting [6]) came out at 0.125 µg/mL. Also, the “MIC K. pneumoniae ATCC 29665” value in the data set with K. pneumoniae ATCC 29665 (broth microdilution, CAMHB) was determined as 0.25 µg/mL. In addition, the “MIC K. pneumoniae KP1.53” value against K. pneumoniae KP1.53 (resistance indicator: MDR, broth microdilution, CAMHB) was determined as 0.5 µg/mL. The “MIC K. pneumoniae RC0045” value in the data set with K. pneumoniae RC0045 (setting [7]) was 0.25 µg/mL. For the same compound, in the data set on P. aeruginosa 2018-007 (resistance indicator: IMP-7, broth microdilution, CAMHB), the “MIC P. aeruginosa 2018-007” value was found to be 2 µg/mL. Besides, the “MIC P. aeruginosa 2251” value in the data set on P. aeruginosa 2251 (resistance indicator: VIM-2, broth microdilution, CAMHB) is 1 µg/mL. Also, the “MIC P. aeruginosa ATCC 10145” value against P. aeruginosa ATCC 10145 (broth microdilution, CAMHB) is 1 µg/mL. In addition, the “MIC P. aeruginosa M120” value with P. aeruginosa M120 (resistance indicator: OXA-50, blaPAO, broth microdilution, CAMHB) amounted to 1 µg/mL. Moreover, the “MIC A. baumanii (ATCC 17961)” value against A. baumanii (ATCC 17961) (broth microdilution, CAMHB) was found to be 0.25 µg/mL. For the same compound, in the data set with P. aeruginosa (PAO1) (broth microdilution, CAMHB), the “MIC P. aeruginosa (PAO1)” value is recorded as 0.5 µg/mL.
